Laboratory results taken from the supplement of paper PMC13380429.

Legend:
Conditions in all cases: 72 h
[1] = test system: Calu-3; test: drug sensitivity score (DSS) for viability; higher = more toxic; extreme values may be limits of the assay
[2] = test system: Vero E6; test: as above
[3] = test system: U2OS; test: as above
[4] = test system: HepG2; test: as above
[5] = test system: Caco-2; test: as above
[6] = test system: Calu-3; test: cell viability relative to DMSO; higher = less toxic
[7] = test system: Vero E6; test: as above
[8] = test system: U2OS; test: as above
[9] = test system: HepG2; test: as above
[10] = test system: Caco-2; test: as above
[11] = test system: Calu-3; test: relative viability EC50 (midpoint between 100% and the lowest measured viability); higher = less toxic
[12] = test system: Vero E6; test: as above
[13] = test system: U2OS; test: as above
[14] = test system: HepG2; test: as above
[15] = test system: Caco-2; test: as above

| Compound | drug sensitivity score [1] | drug sensitivity score [2] | drug sensitivity score [3] | drug sensitivity score [4] | drug sensitivity score [5] | cell viability ([6]; 1 nM) [%] | cell viability ([6]; 10 nM) [%] | cell viability ([6]; 100 nM) [%] | cell viability ([6]; 1000 nM) [%] | cell viability ([6]; 10000 nM) [%] | cell viability ([7]; 1 nM) [%] | cell viability ([7]; 10 nM) [%] | cell viability ([7]; 100 nM) [%] | cell viability ([7]; 1000 nM) [%] | cell viability ([7]; 10000 nM) [%] | cell viability ([8]; 1 nM) [%] | cell viability ([8]; 10 nM) [%] | cell viability ([8]; 100 nM) [%] | cell viability ([8]; 1000 nM) [%] | cell viability ([8]; 10000 nM) [%] | cell viability ([9]; 1 nM) [%] | cell viability ([9]; 10 nM) [%] | cell viability ([9]; 100 nM) [%] | cell viability ([9]; 1000 nM) [%] | cell viability ([9]; 10000 nM) [%] | cell viability ([10]; 1 nM) [%] | cell viability ([10]; 10 nM) [%] | cell viability ([10]; 100 nM) [%] | cell viability ([10]; 1000 nM) [%] | cell viability ([10]; 10000 nM) [%] | relative viability EC50 [11] [µM] | relative viability EC50 [12] [µM] | relative viability EC50 [13] [µM] | relative viability EC50 [14] [µM] | relative viability EC50 [15] [µM] |
| --- | --- | --- | --- | --- | --- | --- | --- | --- | --- | --- | --- | --- | --- | --- | --- | --- | --- | --- | --- | --- | --- | --- | --- | --- | --- | --- | --- | --- | --- | --- | --- | --- | --- | --- | --- |
| NCCCC[C@@H]1NC(=O)[C@@H](Cc2c[nH]c3ccccc23)NC(=O)[C@H](c2ccccc2)NC(=O)[C@@H]2C[C@@H](OC(=O)NCCN)CN2C(=O)[C@H](Cc2ccccc2)NC(=O)[C@H](Cc2ccc(OCc3ccccc3)cc2)NC1=O [pasireotide] | 0 | 0 | 0 | 0 | 0 | 102 | 101 | 87.8 | 106 | 108 | 98.9 | 89 | 96 | 83.6 | 96.8 | 96.7 | 104 | 95.8 | 102 | 108 | 91.9 | 105 | 114 | 102 | 93.3 | 108 | 107 | 88.4 | 110 | 146 | > 10 | > 10 | > 10 | > 10 | > 10 |
| CC(C)C1=C2[C@H]3CC[C@@H]4[C@@]5(C)CC[C@H](OC(=O)CC(C)(C)C(=O)O)C(C)(C)[C@@H]5CC[C@@]4(C)[C@]3(C)CC[C@@]2([C@@H](O)CN(CCN(C)C)Cc2ccc(Cl)cc2)CC1=O | 0 | 0 | 0 | 0 | 0 | 95.7 | 91.8 | 106 | 104 | 105 | 102 | 106 | 106 | 99.5 | 105 | 95.3 | 97.8 | 94.3 | 94.9 | 94.2 | 96.7 | 105 | 100 | 99.6 | 95.4 | 96.3 | 98.7 | 97.7 | 100 | 97.2 | > 10 | > 10 | > 10 | > 10 | > 10 |
| COC(=O)N/N=C/c1c[n+]([O-])c2ccccc2[n+]1[O-] [carbadox] | 0 | 0 | 0 | 0 | 0 | 93.8 | 84.8 | 95.7 | 105 | 93.2 | 93.7 | 95.8 | 88.9 | 92.6 | 111 | 99.5 | 97.4 | 99.2 | 91.7 | 98.2 | 110 | 95.4 | 96.1 | 105 | 110 | 90.4 | 81.8 | 92.9 | 92.1 | 88.4 | > 10 | > 10 | > 10 | > 10 | > 10 |
| O=C(Nc1ccc(C(=O)O)c(O)c1)c1ccccc1 [benzoylpas] | 0 | 0 | 0 | 0 | 0 | 94.1 | 106 | 97.9 | 90.3 | 91.1 | 99.8 | 96.8 | 105 | 97.4 | 103 | 100 | 102 | 92.8 | 95.9 | 101 | 93.5 | 97 | 97.7 | 98.6 | 107 | 93 | 97.5 | 91.9 | 97.5 | 92 | > 10 | > 10 | > 10 | > 10 | > 10 |
| Clc1ccc(CCCOCCCN2CCCCC2)cc1 [pitolisant] | 0 | 0 | 0 | 0.3 | 0 | 90.7 | 106 | 92.3 | 90.6 | 94.8 | 95 | 94.9 | 95.6 | 93.2 | 89.4 | 104 | 99.7 | 100 | 97.7 | 96.8 | 93.8 | 91.4 | 96 | 94.6 | 81.8 | 99.4 | 93.6 | 96.4 | 89.7 | 89.8 | > 10 | > 10 | > 10 | > 10 | > 10 |
| CC[C@@H](C)Nc1cc(C(=O)N[C@H]2C[C@H]3CC[C@@H](C2)N3c2ccc(C(=O)C3CC3)cn2)c(C)cc1C(N)=O [XL888] | 16.8 | 12.7 | 24.2 | 30.8 | 17.3 | 92.4 | 101 | 53.6 | 43.1 | 38.7 | 104 | 104 | 99.8 | 30.4 | 52.4 | 97.2 | 104 | 43.4 | 4.3 | 3.4 | 108 | 93.4 | 4.8 | 1.3 | 1 | 104 | 94.3 | 59.3 | 32.8 | 35.2 | 0.0636 | 0.315 | 0.0872 | 0.0285 | 0.071 |
| O=C(O)c1ccc2[nH]cc(CCCCN3CC=C(c4ccccc4)CC3)c2c1 [carmoxirole] | 0 | 0 | 0 | 0 | 0 | 98.7 | 112 | 92.4 | 96 | 90.8 | 99.2 | 100 | 93.6 | 102 | 95.8 | 103 | 99 | 96.9 | 100 | 101 | 98.4 | 93 | 86.7 | 100 | 88.3 | 106 | 107 | 103 | 91.2 | 105 | > 10 | > 10 | > 10 | > 10 | > 10 |
| O=C(O)[C@H](O)[C@@H](O)[C@H](O)[C@H](O)CO [sodium-gluconate] | 0 | 0 | 0 | 0 | 0 | 106 | 96.6 | 108 | 109 | 105 | 96.9 | 107 | 102 | 93.5 | 105 | 96.9 | 97 | 98.2 | 99.8 | 103 | 79.7 | 108 | 94.3 | 92.7 | 91 | 104 | 101 | 104 | 113 | 92.2 | > 10 | > 10 | > 10 | > 10 | > 10 |
| O=C(NCCCN1CCOCC1)c1ccc(Cl)cc1 [eprobemide] | 0 | 0 | 0 | 0.5 | 0 | 105 | 87.6 | 105 | 92.2 | 103 | 92.1 | 96.3 | 100 | 99.1 | 99.6 | 102 | 92.7 | 103 | 97.4 | 99.5 | 108 | 107 | 88.6 | 110 | 76.6 | 106 | 92.3 | 108 | 103 | 98.8 | > 10 | > 10 | > 10 | > 10 | > 10 |
| CNC(=N)NCCC[C@H](N)C(=O)O [targinine] | 0 | 0.5 | 0 | 0 | 0 | 96.7 | 96.9 | 96.8 | 111 | 99.2 | 96.3 | 98.1 | 95.9 | 99.6 | 81.3 | 105 | 96.9 | 101 | 101 | 102 | 94.1 | 103 | 96.9 | 98.6 | 96.3 | 98.1 | 98 | 101 | 96.8 | 96 | > 10 | > 10 | > 10 | > 10 | > 10 |
| CCOC(=O)[N-]c1c[n+](N2CCOCC2)no1 [molsidomine] | 0.1 | 0 | 0 | 0 | 0 | 95.8 | 88.6 | 91.6 | 91.8 | 89.4 | 92.1 | 99.7 | 95.5 | 96.4 | 109 | 99.3 | 97.6 | 104 | 99.8 | 102 | 87.6 | 95.4 | 97.8 | 106 | 107 | 94.4 | 96.5 | 106 | 95.1 | 104 | > 10 | > 10 | > 10 | > 10 | > 10 |
| COc1cc(/C=C/C(N)=O)cc(OC)c1OC [cintriamide] | 0 | 0 | 0 | 0 | 0 | 106 | 97.4 | 95.6 | 102 | 105 | 96.3 | 97.2 | 95.5 | 90.2 | 104 | 98.2 | 102 | 101 | 102 | 106 | 97.1 | 99.6 | 100 | 95.1 | 114 | 83 | 98.3 | 96 | 97.1 | 99.2 | > 10 | > 10 | > 10 | > 10 | > 10 |
| COc1ccc(CCO[C@@H]2CCCC[C@H]2N2CC[C@@H](O)C2)cc1OC [vernakalant] | 0 | 0 | 0 | 0 | 0 | 111 | 97.1 | 106 | 104 | 109 | 97.8 | 97.3 | 91.7 | 98.6 | 106 | 102 | 94.1 | 103 | 95.2 | 101 | 89.2 | 112 | 99.2 | 100 | 110 | 101 | 91.2 | 93.9 | 101 | 106 | > 10 | > 10 | > 10 | > 10 | > 10 |
| CCn1c(=O)[nH]c2cc(Cl)c(Cl)cc21 [DCEBIO] | 0 | 0 | 0 | 0 | 0 | 101 | 98.6 | 93.8 | 96.9 | 102 | 102 | 100 | 96 | 99.9 | 99.2 | 98 | 103 | 98.3 | 98.3 | 97 | 101 | 104 | 104 | 86.3 | 107 | 98.2 | 97.2 | 99.7 | 93 | 98.7 | > 10 | > 10 | > 10 | > 10 | > 10 |
